Reference: patent US20130109682A1, “CYCLIC ETHER COMPOUNDS USEFUL AS KINASE INHIBITORS” (NOVARTIS AG, priority 2010, published 2013)
Where two headings read alike, the source gives them in different places.

Assays:
[1] = system: KMS11 (human myeloma cell line); test: Cell proliferation assay (CellTiter-Glo), KMS11; type: cell-based; conditions: Homo sapiens, KMS-11
Method in brief: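 KMS11 cells in IMDM with 10% FBS and sodium pyruvate, seeded at 2000 cells/well on assay day. Compound added at 2× to equal volume of cells, incubated 3 days at 37° C. Viability read by CellTiter-Glo luminescence; EC50 derived.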

FLT3D835Y kinase = biological target: T1, FLT3D835Y kinase (Homo sapiens, UniProt P36888, D835Y); test: FLT3D835Y kinase inhibition assay (LanthaScreen TR-FRET); type: biochemical; conditions: read-out: FLT3 IC50
T1 sequence (P36888 27-993 D835Y): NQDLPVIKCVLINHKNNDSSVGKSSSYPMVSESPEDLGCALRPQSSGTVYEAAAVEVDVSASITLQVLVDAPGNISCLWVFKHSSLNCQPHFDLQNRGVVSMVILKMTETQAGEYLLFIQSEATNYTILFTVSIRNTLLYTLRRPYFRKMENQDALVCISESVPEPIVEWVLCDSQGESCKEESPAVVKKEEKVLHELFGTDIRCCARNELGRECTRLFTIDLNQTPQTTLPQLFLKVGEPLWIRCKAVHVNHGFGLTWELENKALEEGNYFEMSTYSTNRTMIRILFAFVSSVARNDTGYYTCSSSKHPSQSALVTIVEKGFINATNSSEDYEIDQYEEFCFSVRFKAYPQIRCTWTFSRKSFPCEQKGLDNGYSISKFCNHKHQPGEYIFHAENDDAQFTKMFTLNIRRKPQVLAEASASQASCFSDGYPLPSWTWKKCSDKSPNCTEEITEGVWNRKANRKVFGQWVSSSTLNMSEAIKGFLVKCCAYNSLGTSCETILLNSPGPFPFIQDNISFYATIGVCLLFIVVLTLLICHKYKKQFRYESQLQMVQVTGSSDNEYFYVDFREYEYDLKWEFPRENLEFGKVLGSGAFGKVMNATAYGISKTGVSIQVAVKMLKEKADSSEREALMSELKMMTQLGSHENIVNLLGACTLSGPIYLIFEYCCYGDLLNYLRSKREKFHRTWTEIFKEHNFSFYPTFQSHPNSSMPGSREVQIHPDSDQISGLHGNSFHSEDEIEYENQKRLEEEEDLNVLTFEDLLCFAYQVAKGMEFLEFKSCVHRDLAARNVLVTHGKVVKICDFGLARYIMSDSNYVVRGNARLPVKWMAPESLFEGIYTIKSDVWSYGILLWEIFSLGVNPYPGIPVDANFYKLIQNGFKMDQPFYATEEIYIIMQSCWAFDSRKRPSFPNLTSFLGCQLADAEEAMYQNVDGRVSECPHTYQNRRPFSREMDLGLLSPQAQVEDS
Description: FLT3D835Y Kinase Inhibition Assay
(§1) LanthaScreen™ is the detection of Time-Resolved Fluorescence Resonance Energy Transfer (TR-FRET) using lanthanide chelates to measure interactions between various binding partners. The application of TR-FRET to assay kinase activity was first described by Mathis (1995). A TR-FRET assay was used to measure FLT3D835Y kinase inhibitory activity. The assay panel was run on a Biomek FX liquid handling workstations. To the assay plates containing […] compound or control solutions, 4.5 μL of buffer A (50 mM TRIS-HCl pH 7.4, 2 mM DTT, 0.02% Tween 20, 0.02 mM Na3VO4, H2O nanpure) including a generic concentration of ATP (2 μM f.c.) was added per well, followed by 4.54 of buffer B (4 uM ATP in Buffer A) including a generic concentration of polyEAY (50 nM f.c.), FLT3D835Y kinase, and divalent cations. Final concentration of kinase and cations were: [FLT3D835Y kinase]=5.7 nM, [Mg]=3 mM, [Mn]=3 mM. After 1 hour of incubation the kinase reactions were stopped by the addition of 4.5 μL of stop solution D (50 mM EDTA, 20 mM TRIS-HCl pH 7.4, 0.04% NP-40) immediately followed by 4.5 μL of buffer A (50 mM TRIS-HCl pH 7.4, 2 mM DTT, 0.02% Tween 20, 0.02 mM Na3VO4, H2O nanpure) including the Tb-labeled P-20 antibody to give a total detection volume of 184. After an incubation time of 45 min in the dark, the plates were transferred into the Pherastar fluorescence reader for counting. The effect of compound on the enzymatic activity was obtained from the linear progress curves and determined from one reading (end point measurement).

FGFR3 kinase = FGFR3 kinase (Homo sapiens, UniProt P22607); test: FGFR3 kinase inhibition assay (LanthaScreen TR-FRET); type: biochemical
Description: FGFR3 Kinase Inhibition Assay
as §1, with “FGFR3” for “FLT3D835Y”, “4.5 μL” for “4.54”, “[FGFR3 kinase]=0.20” for “[FLT3D835Y kinase]=5.7”, “18 μL.” for “184.”

[2] = KMS11 cells, cell proliferation, read-out: KMS11-Luc EC50

Chain of FGFR3 kinase (P22607 23-806): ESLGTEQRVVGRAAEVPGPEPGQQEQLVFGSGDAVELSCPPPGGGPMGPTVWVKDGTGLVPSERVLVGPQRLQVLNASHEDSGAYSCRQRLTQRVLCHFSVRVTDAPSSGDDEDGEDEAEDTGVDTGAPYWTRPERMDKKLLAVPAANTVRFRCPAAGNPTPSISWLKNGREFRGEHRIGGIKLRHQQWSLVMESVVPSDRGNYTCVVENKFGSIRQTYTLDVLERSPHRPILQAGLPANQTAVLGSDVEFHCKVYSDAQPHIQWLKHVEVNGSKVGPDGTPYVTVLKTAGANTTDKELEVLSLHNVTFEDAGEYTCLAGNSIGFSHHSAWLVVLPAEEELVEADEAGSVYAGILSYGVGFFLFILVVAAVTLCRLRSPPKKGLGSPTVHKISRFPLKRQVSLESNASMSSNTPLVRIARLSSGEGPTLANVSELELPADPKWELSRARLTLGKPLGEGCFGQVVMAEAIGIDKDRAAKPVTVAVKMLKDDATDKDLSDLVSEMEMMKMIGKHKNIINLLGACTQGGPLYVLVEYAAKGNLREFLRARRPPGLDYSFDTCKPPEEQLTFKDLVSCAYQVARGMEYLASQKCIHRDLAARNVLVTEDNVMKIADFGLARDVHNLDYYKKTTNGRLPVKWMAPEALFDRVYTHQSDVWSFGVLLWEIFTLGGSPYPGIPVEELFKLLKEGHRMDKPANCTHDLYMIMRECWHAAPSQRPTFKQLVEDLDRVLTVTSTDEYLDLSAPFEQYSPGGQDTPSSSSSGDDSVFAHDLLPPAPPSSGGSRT

EC50 ([1]; KMS11-Luc cells) [nM]	IC50 (FLT3D835Y kinase) [nM]	SMILES	also measured
1120		C[C@H]1O[C@@H](c2ccncc2NC(=O)c2nc(-c3ccccc3)ncc2N)C[C@@H](O)[C@]1(C)O [Example 32, 5-amino-N-(4-((2R,4R,5S,6R)-4,5-dihydroxy-5,6-dimethyltetrahydro-2H-pyran-2-yl)pyridin-3-yl)-2-phenylpyrimidine-4-carboxamide]	
> 10000		CC[C@H]1O[C@@H](c2ccncc2NC(=O)c2nc(-c3ccccc3)ncc2N)C[C@@H](O)[C@@H]1O [Example 39, 5-amino-N-(4-((2R,4R,5S,6R)-6-ethyl-4,5-dihydroxytetrahydro-2H-pyran-2-yl)pyridin-3-yl)-2-phenylpyrimidine-4-carboxamide]	
1000		C[C@H]1O[C@@H](c2ccncc2NC(=O)c2nc(-c3ccccc3)cnc2N)[C@H](F)[C@@H](O)[C@]1(C)O [Example 58, 3-amino-N-(4-((2S,3R,4S,5S,6R)-3-fluoro-4,5-dihydroxy-5,6-dimethyltetrahydro-2H-pyran-2-yl)pyridin-3-yl)-6-phenylpyrazine-2-carboxamide]	
900		C[C@H]1O[C@@H](c2ccncc2NC(=O)c2nc(-c3ccccc3)cnc2N)C[C@@H](O)[C@]1(C)O [Example 84, 3-amino-N-(4-((2R,4R,5S,6R)-4,5-dihydroxy-5,6-dimethyltetrahydro-2H-pyran-2-yl)pyridin-3-yl)-6-phenylpyrazine-2-carboxamide]	
2800		C[C@@H]1O[C@H](c2ccncc2NC(=O)c2nc(-c3ccccc3)cnc2N)C[C@H](O)[C@@]1(C)O [Example 86, 3-amino-N-(4-((2S,4S,5R,6S)-4,5-dihydroxy-5,6-dimethyltetrahydro-2H-pyran-2-yl)pyridin-3-yl)-6-phenylpyrazine-2-carboxamide]	
	1.4	Nc1ncc(-c2ccccc2)nc1C(=O)Nc1cnccc1[C@H]1C[C@@H](N)[C@@]2(O)CCCC[C@H]2O1 [Example 197, 3-amino-N-(4-((2R,4R,4aS,8aR)-4-amino-4a-hydroxyoctahydro-2H-chromen-2-yl)pyridin-3-yl)-6-phenylpyrazine-2-carboxamide]	EC50 [1, 2]: 70 nM
	1.8	Nc1ncc(-c2ccccc2)nc1C(=O)Nc1cnccc1[C@H]1C[C@@H](N)[C@H]2CCC[C@H]2O1 [Example 199, 3-amino-N-(4-((2R,4R,4aR,7aR)-4-aminooctahydrocyclopenta[b]pyran-2-yl)pyridin-3-yl)-6-phenylpyrazine-2-carboxamide]	EC50 [1, 2]: 590 nM
	4100	Nc1ncc(-c2ccccc2)nc1C(=O)Nc1cnccc1[C@@H]1C[C@H](N)[C@]2(O)CCCC[C@@H]2O1 [Example 243, 3-amino-N-(4-((2S,4S,4aR,8aS)-4-amino-4a-hydroxyoctahydro-2H-chromen-2-yl)pyridin-3-yl)-6-phenylpyrazine-2-carboxamide]	

Continued, compound first:

SMILES	EC50 ([1]; KMS11-Luc cells) [nM]	IC50 (FLT3D835Y kinase) [nM]	also measured
C=C1[C@@H](O)C[C@@H](c2ccncc2NC(=O)c2nc(-c3ccccc3)cnc2N)OC12CC2 [Example 5, 3-amino-N-(4-((5S,7S)-7-hydroxy-8-methylene-4-oxaspiro[2.5]octan-5-yl)pyridin-3-yl)-6-phenylpyrazine-2-carboxamide]	90		
Nc1ncc(-c2ccccc2)nc1C(=O)Nc1cnccc1[C@H]1C[C@@H](O)[C@H](O)[C@@H](CCl)O1 [Example 36, 3-amino-N-(4-((2R,4R,5S,6S)-6-(chloromethyl)-4,5-dihydroxytetrahydro-2H-pyran-2-yl)pyridin-3-yl)-6-phenylpyrazine-2-carboxamide]	200		
C[C@@H]1O[C@H](c2ccncc2NC(=O)c2nc(-c3ccccc3)cnc2N)[C@@H](F)[C@H](O)[C@@]1(C)O [Example 63, 3-amino-N-(4-((2R,3S,4R,5R,6S)-3-fluoro-4,5-dihydroxy-5,6-dimethyltetrahydro-2H-pyran-2-yl)pyridin-3-yl)-6-phenylpyrazine-2-carboxamide]	1300		
Nc1ncc(-c2ccccc2)nc1C(=O)Nc1cnccc1[C@@H]1C[C@H](N)[C@@H]2CCC[C@@H]2O1 [Example 233, 3-amino-N-(4-((2S,4S,4aS,7aS)-4-aminooctahydrocyclopenta[b]pyran-2-yl)pyridin-3-yl)-6-phenylpyrazine-2-carboxamide]		160	EC50 [1, 2]: 100 nM
CC(C)(C)[C@H]1O[C@@H](c2ccncc2NC(=O)c2nc(-c3ccccc3)cnc2N)C[C@H](N)[C@@H]1O [Example 286, 3-amino-N-(4-((2R,4S,5S,6R)-4-amino-6-tert-butyl-5-hydroxytetrahydro-2H-pyran-2-yl)pyridin-3-yl)-6-phenylpyrazine-2-carboxamide]			EC50 [1, 2]: 1970 nM; IC50 (FGFR3 kinase): 710 nM
C[C@@]1(O)[C@@H](N)C[C@@H](c2ccncc2NC(=O)c2nc(-c3ccccc3)cnc2N)OC12CC2 [Example 350, 3-amino-N-(4-((5S,7S,8R)-7-amino-8-hydroxy-8-methyl-4-oxaspiro[2.5]octan-5-yl)pyridin-3-yl)-6-phenylpyrazine-2-carboxamide]		44	
C[C@]1(O)[C@@H](N)C[C@H](c2ccncc2NC(=O)c2nc(-c3ccccc3)cnc2N)OC12CC2 [Example 351, 3-amino-N-(4-((5R,7S,8S)-7-amino-8-hydroxy-8-methyl-4-oxaspiro[2.5]octan-5-yl)pyridin-3-yl)-6-phenylpyrazine-2-carboxamide]		5	
C[C@@]1(O)[C@H](N)C[C@@H](c2ccncc2NC(=O)c2nc(-c3ccccc3)cnc2N)OC12CC2 [Example 352, 3-amino-N-(4-((5S,7R,8R)-7-amino-8-hydroxy-8-methyl-4-oxaspiro[2.5]octan-5-yl)pyridin-3-yl)-6-phenylpyrazine-2-carboxamide]		2.5	
C[C@]1(O)[C@H](N)C[C@H](c2ccncc2NC(=O)c2nc(-c3ccccc3)cnc2N)OC12CC2 [Example 353, 3-amino-N-(4-((5R,7R,8S)-7-amino-8-hydroxy-8-methyl-4-oxaspiro[2.5]octan-5-yl)pyridin-3-yl)-6-phenylpyrazine-2-carboxamide]		95	
